Assay results as given in patent publication US20190323025A1, “COMPOSITIONS AND METHODS FOR DELIVERY OF MOLECULES TO PLANTS” (BLOOMSBURG UNIVERSITY OF PENNSYLVANIA, priority 2018, published 2019).

Columns and labels:
[1] = system: AvsYS1 avenic acid/Fe+3 transporter; assay: Yeast growth assay in liquid medium with phytosiderophore/Fe+3 complex as the only available iron, strain DEY1453 transformed with pJKD1 (pYES2/AvsYS1) or pYES2; type: cell-based, Avena sativa; settings: for growth of yeast with transporter (DEY1453:pJKD1, 53K): S. cerevisiae DEY1453:pJKD1 (pYES2/AvsYS1), YNB minimal medium pH 7.5, BPDS, iron only as Fe+3 complexed with the substance
Source text: AvsYS1 (Genbank FJ477297.1) was isolated using 5′RACE from the roots of iron starved oats (Avena sativa). Primers were designed by comparing one functionally confirmed phytosiderophore/Fe^+3 transporter (HvYS1) and other iron transport proteins. After obtaining a full-length clone, we subcloned the gene (AvsYS1) into a yeast galactose inducible expression vector (pYES2). The resultant plasmid was designated pJKD1. We obtained a yeast strain that lacks the ability to take up ferric iron and transformed it with pYES2 and pJKD1. The transformants were grown under identical conditions in which the only iron available was in the Fe^+3/avenic acid complex.
We engineered the AvsYS1 gene into a galactose inducible expression systems vector (pYES2). Our first major result was the functional confirmation of the AvsYS1 gene. We transformed pYES2 and pJKD1 (pYES2/AvsYS1) into a strain of S. cerevisiae (DEY1453) that lacks the ability to take up Fe^3+. In the process, we developed a new assay based on growth in liquid medium. The advantage of this assay over more traditional assays used in yeast-based PS/Fe^+3 assays is that it is quantifiable. Other assays (e.g., Murata, 2006) grow yeast on a solid plate, and qualitative growth of colonies is used. With our assay, we can generate numerical data based on the density as measured by the absorbance at 600 nm. […] Further detail is provided below.
53Y=DEY1453:pYES2 (no transporter) 53K=DEY1453:pJKD1 (pYES2/AvsYS1 [transporter]) DOB—Complete medium, supplemented w/FeSo4, ampicillin 50 YNB-minimal medium, pH7.5, BPDS (ferrous chelator), ampicillin,
Protocols included: 53Y and 53K in DOB+FeSO4, 53Y and 53K in YNB supplemented with Avenic acid; 53Y and 53K supplemented with BPA-1-068B; 53Y and 53K in YNB w/ no supplements; uninoculated YNB; uninoculated DOB.
53Y=DEY1453:pYES2 (no transporter) 53K=DEY1453:pJKD1 (pYES2/AvsYS1 [transporter]) DOB—Complete medium, supplemented w/FeSo4, ampicillin 50 YNB-minimal medium, pH7.5, BPDS (ferrous chelator), ampicillin, Ø=no supplementation
Protocols included: 53Y and 53K, supplemented with Avenic acid, 53Y and 53K supplemented with BPA-1-068B, 53Y and 53K in YNB w/ no supplements.
3Y=DEY1453:pYES2 (no transporter) 3K=DEY1453:pJKD1 (pYES2/AvsYS1 [transporter]) Strains grown in YNB/Gal, pH 7.5, Amp50, Avenic acid: Fe^+3, 5:1
Another interesting observation was made in relation to growth of the DEY1453:pJKD1 using one of the analogs complexed with Fe^+3. […] This was a very significant result because it provided strong (though not dispositive) evidence in support of our Trojan Horse delivery technology.

[2] = system: Micro-Tom tomatoes, AvsYS1 transformants (MT*) and untransformed (MT); assay: Hydroponic growth of Micro-Tom tomatoes under iron limiting conditions with iron provided as FeCl3/avenic acid; type: in vivo, tomato; settings: Hoagland's solution (-Fe), pH 7.4, 10 μM FeCl3 complexed with 15 μM avenic acid
Source text: RNA was isolated from […]. A cDNA (AvsYSl) was isolated and its functionality confirmed as a phytosiderophore/Fe^+3 transporter that mitigates the effects of Iron Deficiency Chlorosis in transgenic Micro-Tom™ tomatoes when the nutrient medium is supplemented with the oat phytosiderophore, avenic acid. […] Final confirmation of the AvsYS1 transporter's functionality was obtained by comparing Micro-Tom™: AvsYS1 (MT*) transformants with non-transgenic Micro-Tom™ grown hydroponically under iron limiting conditions. (See, e.g., Shikata et al. (2016) “Micro-Tom tomato as an alternative plant model system: mutant collection and efficient transformation” Methods Mol. Biol. 1363:47-55.) Samples were grown in Hoagland's solution (—Fe) at pH 7.4. Iron was provided as 10 μM FeCl3/15 μM avenic acid. Tomatoes normally optimally grow at pH 5.6-6.8. Sample 3 was labelled MT*. This was a Micro-Tom™ variety was transformed with Fe+3/avenic acid transporter isolated from roots of iron starved oats. Sample 4 was an untransformed Micro-Tom™ (MT) plant.
MT* tomatoes grew robustly in Hoagland's solution at a pH of 7.4 supplemented with iron was provided at 10 μM FeCl3 complexed with 15 μM avenic acid.

SMILES | growth of yeast with transporter (DEY1453:pJKD1, 53K) [1] | growth of yeast without transporter (DEY1453:pYES2, 53Y) ([1]; S. cerevisiae DEY1453:pYES2 (no transporter), iron only as Fe+3/avenic acid complex) | growth of MT* (AvsYS1 transformed) tomatoes ([2]; 16 days) | iron deficiency chlorosis in untransformed (MT) tomatoes ([2]; after 16 days) | growth of yeast with transporter (DEY1453:pJKD1, 53K) ([1]; listed as drawing 7) | growth rate of DEY1453:pJKD1 ([1]; ferric iron supplied with the analog, compared to DEY1453:pYES2 controls) | uptake by the avenic acid transporter ([1]; yeast, in the presence of iron)
O=C(O)C(CO)NCCC(NCC[C@H](O)C(=O)O)C(=O)O (stereo partly drawn) [MGS-2-128BF] | supported growth as well as avenic acid |  |  |  |  |  | 
O=C(O)[C@H](CCO)NCC[C@H](NCC[C@H](O)C(=O)O)C(=O)O [avenic acid, Avenic Acid] | able to grow vigorously | could not | grew robustly | Iron deficiency chlorosis was observed in new leaves |  |  | 
O=C(CC(NCCC(NCC[C@H](O)C(=O)O)C(=O)O)C(=O)O)OCc1ccccc1 (stereo partly drawn) [BPA-1-068B] | able to grow |  |  |  | impressive | slower, but undeniably robust | able to be taken up
